In the kinase profiling compilation of Christmann-Franck et al. (2016):

How the values were obtained:
Assay in all cases: radiometric filter-binding kinase assay, Kinase HotSpot
Settings in all cases: compound 0.5 µM; ATP 10 µM
ADRBK2 (human) = ADRBK2 (human) (UniProt P35626)
BTK (human) = BTK (human) (UniProt Q06187)
CDK4 CCND3 (human) = CDK4 CCND3 (human) (UniProt P30281+P11802)
CHEK1 (human) = CHEK1 (human) (UniProt O14757)
FGFR4 (human) = FGFR4 (human) (UniProt P22455)
GRK4 (human) = GRK4 (human) (UniProt P32298)
Chain of GRK4 (human) (P32298 whole entry, looked up): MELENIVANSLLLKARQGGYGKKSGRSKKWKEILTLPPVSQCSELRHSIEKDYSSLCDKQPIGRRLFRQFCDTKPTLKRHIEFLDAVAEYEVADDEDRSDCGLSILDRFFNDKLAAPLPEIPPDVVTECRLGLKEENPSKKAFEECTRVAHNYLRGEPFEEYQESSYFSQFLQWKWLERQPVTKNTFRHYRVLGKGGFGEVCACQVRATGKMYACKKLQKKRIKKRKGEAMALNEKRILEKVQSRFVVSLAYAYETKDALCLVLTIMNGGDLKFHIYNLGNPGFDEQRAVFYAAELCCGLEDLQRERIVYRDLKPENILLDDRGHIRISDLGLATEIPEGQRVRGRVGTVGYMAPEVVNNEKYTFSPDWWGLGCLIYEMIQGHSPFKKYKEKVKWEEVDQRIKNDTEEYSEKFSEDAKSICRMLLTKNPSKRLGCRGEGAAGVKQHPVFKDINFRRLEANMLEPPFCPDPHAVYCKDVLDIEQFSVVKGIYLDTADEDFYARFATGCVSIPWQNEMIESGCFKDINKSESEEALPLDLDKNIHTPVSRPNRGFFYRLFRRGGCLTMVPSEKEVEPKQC

GRK7 (human) = GRK7 (human) (UniProt Q8WTQ7)
Chain of GRK7 (human) (Q8WTQ7 whole entry, looked up): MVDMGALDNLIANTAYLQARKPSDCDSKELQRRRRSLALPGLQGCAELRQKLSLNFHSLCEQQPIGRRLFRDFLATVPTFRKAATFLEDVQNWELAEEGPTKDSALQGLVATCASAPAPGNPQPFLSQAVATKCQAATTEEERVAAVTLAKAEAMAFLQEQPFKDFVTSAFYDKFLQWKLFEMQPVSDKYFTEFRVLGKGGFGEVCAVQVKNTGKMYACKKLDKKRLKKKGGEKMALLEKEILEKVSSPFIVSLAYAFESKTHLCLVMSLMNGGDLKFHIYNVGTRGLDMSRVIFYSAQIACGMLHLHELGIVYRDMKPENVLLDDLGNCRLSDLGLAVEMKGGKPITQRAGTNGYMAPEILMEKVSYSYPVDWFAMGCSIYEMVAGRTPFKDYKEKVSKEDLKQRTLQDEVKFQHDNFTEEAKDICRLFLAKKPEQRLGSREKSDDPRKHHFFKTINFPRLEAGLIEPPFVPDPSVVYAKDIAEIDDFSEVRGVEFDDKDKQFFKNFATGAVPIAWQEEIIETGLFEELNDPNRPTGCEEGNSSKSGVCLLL

HCK (human) = HCK (human) (UniProt P08631)
INSR (human) = INSR (human) (UniProt P06213)
IRAK4 (human) = IRAK4 (human) (UniProt Q9NWZ3)
ITK (human) = ITK (human) (UniProt Q08881)
Chain of ITK (human) (Q08881 whole entry, looked up): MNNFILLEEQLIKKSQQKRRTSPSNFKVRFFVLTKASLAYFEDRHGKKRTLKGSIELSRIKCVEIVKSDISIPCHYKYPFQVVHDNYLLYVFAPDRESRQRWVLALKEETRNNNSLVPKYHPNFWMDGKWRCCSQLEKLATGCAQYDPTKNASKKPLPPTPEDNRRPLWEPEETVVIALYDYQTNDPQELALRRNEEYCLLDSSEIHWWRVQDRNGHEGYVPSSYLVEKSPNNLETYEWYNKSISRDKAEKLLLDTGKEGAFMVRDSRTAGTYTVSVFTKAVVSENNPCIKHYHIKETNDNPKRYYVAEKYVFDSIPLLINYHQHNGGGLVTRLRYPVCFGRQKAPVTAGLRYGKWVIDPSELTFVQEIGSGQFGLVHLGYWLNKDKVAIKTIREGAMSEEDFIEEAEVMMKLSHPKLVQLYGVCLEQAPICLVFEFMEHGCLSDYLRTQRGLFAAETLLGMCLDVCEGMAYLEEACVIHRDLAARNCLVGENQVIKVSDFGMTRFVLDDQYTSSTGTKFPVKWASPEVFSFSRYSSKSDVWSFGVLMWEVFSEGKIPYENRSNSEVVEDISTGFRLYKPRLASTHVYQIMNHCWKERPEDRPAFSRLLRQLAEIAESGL

MAP2K1 (human) = MAP2K1 (human) (UniProt Q02750)
MAP3K5 (human) = MAP3K5 (human) (UniProt Q99683)
MAP3K8 (human) = MAP3K8 (human) (UniProt P41279)
MAPK10 (human) = MAPK10 (human) (UniProt P53779)
MAPKAPK3 (human) = MAPKAPK3 (human) (UniProt Q16644)
MARK4 (human) = MARK4 (human) (UniProt Q96L34)
MYO3B (human) = MYO3B (human) (UniProt Q8WXR4)
NEK11 (human) = NEK11 (human) (UniProt Q8NG66)
NEK2 (human) = NEK2 (human) (UniProt P51955)
Chain of NEK2 (human) (P51955 whole entry, looked up): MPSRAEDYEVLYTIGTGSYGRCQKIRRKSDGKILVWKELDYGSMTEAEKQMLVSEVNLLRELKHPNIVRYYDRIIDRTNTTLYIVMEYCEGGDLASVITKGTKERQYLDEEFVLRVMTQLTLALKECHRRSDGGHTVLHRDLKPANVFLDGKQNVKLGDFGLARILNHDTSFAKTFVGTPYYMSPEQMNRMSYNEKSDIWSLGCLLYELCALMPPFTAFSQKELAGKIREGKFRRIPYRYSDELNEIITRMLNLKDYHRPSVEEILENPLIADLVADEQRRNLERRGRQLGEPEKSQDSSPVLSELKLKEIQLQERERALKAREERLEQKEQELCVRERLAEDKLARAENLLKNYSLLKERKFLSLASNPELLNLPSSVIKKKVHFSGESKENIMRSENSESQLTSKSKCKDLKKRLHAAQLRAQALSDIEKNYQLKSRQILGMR

NEK3 (human) = NEK3 (human) (UniProt P51956)
NEK6 (human) = NEK6 (human) (UniProt Q9HC98)
OXSR1 (human) = OXSR1 (human) (UniProt O95747)
PASK (human) = PASK (human) (UniProt Q96RG2)
PBK (human) = PBK (human) (UniProt Q96KB5)
Chain of PBK (human) (Q96KB5 whole entry, looked up): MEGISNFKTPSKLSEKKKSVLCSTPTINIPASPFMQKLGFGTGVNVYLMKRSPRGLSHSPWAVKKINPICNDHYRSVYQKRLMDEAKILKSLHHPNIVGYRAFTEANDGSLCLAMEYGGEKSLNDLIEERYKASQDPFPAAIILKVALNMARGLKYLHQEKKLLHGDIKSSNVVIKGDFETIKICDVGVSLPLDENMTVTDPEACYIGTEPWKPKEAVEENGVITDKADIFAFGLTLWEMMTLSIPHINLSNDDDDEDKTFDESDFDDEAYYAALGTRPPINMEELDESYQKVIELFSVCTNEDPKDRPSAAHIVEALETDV

PIM2 (human) = PIM2 (human) (UniProt Q9P1W9)
Chain of PIM2 (human) (Q9P1W9 whole entry, looked up): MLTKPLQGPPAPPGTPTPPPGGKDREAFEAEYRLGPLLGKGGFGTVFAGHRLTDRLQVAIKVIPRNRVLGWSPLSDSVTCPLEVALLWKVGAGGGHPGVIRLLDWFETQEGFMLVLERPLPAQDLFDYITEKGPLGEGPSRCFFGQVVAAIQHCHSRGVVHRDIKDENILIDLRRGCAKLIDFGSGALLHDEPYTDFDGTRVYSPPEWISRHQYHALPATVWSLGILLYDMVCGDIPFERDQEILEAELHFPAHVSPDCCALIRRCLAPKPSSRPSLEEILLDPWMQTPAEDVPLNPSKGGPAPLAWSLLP

PIM3 (human) = PIM3 (human) (UniProt Q86V86)
PLK1 (human) = PLK1 (human) (UniProt P53350)
PRKCA (human) = PRKCA (human) (UniProt P17252)
PRKD1 (human) = PRKD1 (human) (UniProt Q15139)
RPS6KA1 KD1 KD2 (human) = RPS6KA1 KD1 KD2 (human) (UniProt Q15418)
Chain of RPS6KA1 KD1 KD2 (human) (Q15418 whole entry, looked up): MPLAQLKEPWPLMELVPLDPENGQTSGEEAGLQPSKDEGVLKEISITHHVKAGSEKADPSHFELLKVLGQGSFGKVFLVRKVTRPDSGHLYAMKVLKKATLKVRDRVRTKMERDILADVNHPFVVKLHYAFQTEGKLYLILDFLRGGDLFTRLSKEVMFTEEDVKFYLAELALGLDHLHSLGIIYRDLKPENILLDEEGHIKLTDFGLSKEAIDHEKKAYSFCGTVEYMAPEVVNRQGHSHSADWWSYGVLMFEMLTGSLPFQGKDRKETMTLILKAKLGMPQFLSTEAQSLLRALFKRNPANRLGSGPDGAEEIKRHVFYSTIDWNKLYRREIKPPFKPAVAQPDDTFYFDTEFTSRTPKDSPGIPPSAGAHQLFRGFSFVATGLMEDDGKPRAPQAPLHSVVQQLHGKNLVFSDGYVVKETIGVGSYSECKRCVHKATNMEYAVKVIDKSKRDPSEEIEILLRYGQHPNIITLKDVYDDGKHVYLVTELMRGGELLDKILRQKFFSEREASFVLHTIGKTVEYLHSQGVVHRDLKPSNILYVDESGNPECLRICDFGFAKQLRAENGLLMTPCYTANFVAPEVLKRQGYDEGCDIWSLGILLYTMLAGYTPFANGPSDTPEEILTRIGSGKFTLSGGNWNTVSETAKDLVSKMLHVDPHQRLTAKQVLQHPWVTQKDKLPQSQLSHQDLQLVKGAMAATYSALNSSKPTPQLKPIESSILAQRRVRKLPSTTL

RPS6KB1 (human) = RPS6KB1 (human) (UniProt P23443)
SIK2 (human) = SIK2 (human) (UniProt Q9H0K1)
TAOK1 (human) = TAOK1 (human) (UniProt Q7L7X3)
TGFBR1 (human) = TGFBR1 (human) (UniProt P36897)
TGFBR2 (human) = TGFBR2 (human) (UniProt P37173)
TNK2 (human) = TNK2 (human) (UniProt Q07912)
TXK (human) = TXK (human) (UniProt P42681)
[1] = target: TYK2 JH1 catalytic (human) (UniProt P29597)
TYRO3 (human) = TYRO3 (human) (UniProt Q06418)
ULK3 (human) = ULK3 (human) (UniProt Q6PHR2)
Chain of ULK3 (human) (Q6PHR2 whole entry, looked up): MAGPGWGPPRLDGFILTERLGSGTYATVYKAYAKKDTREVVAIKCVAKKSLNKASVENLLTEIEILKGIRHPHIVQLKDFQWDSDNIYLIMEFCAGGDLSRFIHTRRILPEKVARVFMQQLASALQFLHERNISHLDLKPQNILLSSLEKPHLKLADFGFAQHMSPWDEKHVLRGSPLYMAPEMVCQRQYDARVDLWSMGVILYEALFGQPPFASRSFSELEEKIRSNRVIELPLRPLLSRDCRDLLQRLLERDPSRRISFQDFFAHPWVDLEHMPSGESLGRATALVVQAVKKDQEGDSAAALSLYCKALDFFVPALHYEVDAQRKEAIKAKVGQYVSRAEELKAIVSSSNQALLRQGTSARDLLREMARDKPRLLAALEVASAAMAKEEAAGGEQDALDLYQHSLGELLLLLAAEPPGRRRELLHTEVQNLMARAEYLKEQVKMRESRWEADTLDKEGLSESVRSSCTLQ

YES1 (human) = YES1 (human) (UniProt P07947)

Chain of CDK4 CCND3 (human) (P11802 whole entry, looked up): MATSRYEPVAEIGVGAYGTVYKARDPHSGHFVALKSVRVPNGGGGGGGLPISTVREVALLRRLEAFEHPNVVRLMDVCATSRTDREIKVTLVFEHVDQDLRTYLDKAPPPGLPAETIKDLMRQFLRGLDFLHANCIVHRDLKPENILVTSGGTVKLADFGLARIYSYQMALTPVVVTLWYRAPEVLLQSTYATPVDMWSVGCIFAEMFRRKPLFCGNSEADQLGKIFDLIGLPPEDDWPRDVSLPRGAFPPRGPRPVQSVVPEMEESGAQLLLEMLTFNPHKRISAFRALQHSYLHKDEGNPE
Chain of CDK4 CCND3 (human) (P30281 whole entry, looked up): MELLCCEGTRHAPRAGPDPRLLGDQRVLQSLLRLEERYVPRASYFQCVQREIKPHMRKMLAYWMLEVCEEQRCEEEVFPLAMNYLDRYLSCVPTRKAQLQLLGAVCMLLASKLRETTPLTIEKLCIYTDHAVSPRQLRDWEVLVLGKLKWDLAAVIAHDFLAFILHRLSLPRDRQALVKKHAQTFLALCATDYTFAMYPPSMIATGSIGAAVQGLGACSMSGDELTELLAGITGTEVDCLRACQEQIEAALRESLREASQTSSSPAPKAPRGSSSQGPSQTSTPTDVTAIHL

Compound: N#C/C(=C(/N)Sc1ccc(N)cc1)c1ccccc1C(F)(F)F
- residual activity (ADRBK2 (human)): 101%
- residual activity (BTK (human)): 93.5%
- residual activity (CDK4 CCND3 (human)): 108%
- residual activity (CHEK1 (human)): 97.5%
- residual activity (FGFR4 (human)): 108%
- residual activity (GRK4 (human)): 98.4%
- residual activity (GRK7 (human)): 113%
- residual activity (HCK (human)): 93.9%
- residual activity (INSR (human)): 101%
- residual activity (IRAK4 (human)): 89.8%
- residual activity (ITK (human)): 97.4%
- residual activity (MAP2K1 (human)): 97.9%
- residual activity (MAP3K5 (human)): 108%
- residual activity (MAP3K8 (human)): 96.5%
- residual activity (MAPK10 (human)): 94.7%
- residual activity (MAPKAPK3 (human)): 102%
- residual activity (MARK4 (human)): 101%
- residual activity (MYO3B (human)): 98.3%
- residual activity (NEK11 (human)): 97.7%
- residual activity (NEK2 (human)): 94.9%
- residual activity (NEK3 (human)): 99.6%
- residual activity (NEK6 (human)): 101%
- residual activity (OXSR1 (human)): 101%
- residual activity (PASK (human)): 101%
- residual activity (PBK (human)): 95.3%
- residual activity (PIM2 (human)): 103%
- residual activity (PIM3 (human)): 111%
- residual activity (PLK1 (human)): 92.6%
- residual activity (PRKCA (human)): 100%
- residual activity (PRKD1 (human)): 103%
- residual activity (RPS6KA1 KD1 KD2 (human)): 88.7%
- residual activity (RPS6KB1 (human)): 102%
- residual activity (SIK2 (human)): 101%
- residual activity (TAOK1 (human)): 98.3%
- residual activity (TGFBR1 (human)): 98.3%
- residual activity (TGFBR2 (human)): 113%
- residual activity (TNK2 (human)): 100%
- residual activity (TXK (human)): 98.7%
- residual activity [1]: 102%
- residual activity (TYRO3 (human)): 110%
- residual activity (ULK3 (human)): 106%
- residual activity (YES1 (human)): 111%

Compound: O=C1Nc2ccc(Cl)cc2/C1=C/c1cc(Cl)c(O)c(Cl)c1
- residual activity (ADRBK2 (human)): 102%
- residual activity (BTK (human)): 92.1%
- residual activity (CDK4 CCND3 (human)): 94.8%
- residual activity (CHEK1 (human)): 86.4%
- residual activity (FGFR4 (human)): 98%
- residual activity (GRK4 (human)): 108%
- residual activity (GRK7 (human)): 97.3%
- residual activity (HCK (human)): 83.2%
- residual activity (INSR (human)): 99.2%
- residual activity (IRAK4 (human)): 101%
- residual activity (ITK (human)): 91.8%
- residual activity (MAP2K1 (human)): 96.8%
- residual activity (MAP3K5 (human)): 106%
- residual activity (MAP3K8 (human)): 93.1%
- residual activity (MAPK10 (human)): 98.8%
- residual activity (MAPKAPK3 (human)): 88.4%
- residual activity (MARK4 (human)): 78.4%
- residual activity (MYO3B (human)): 17.4%
- residual activity (NEK11 (human)): 104%
- residual activity (NEK2 (human)): 86%
- residual activity (NEK3 (human)): 94%
- residual activity (NEK6 (human)): 104%
- residual activity (OXSR1 (human)): 91.6%
- residual activity (PASK (human)): 70%
- residual activity (PBK (human)): 86.1%
- residual activity (PIM2 (human)): 48.6%
- residual activity (PIM3 (human)): 14.5%
- residual activity (PLK1 (human)): 99.8%
- residual activity (PRKCA (human)): 105%
- residual activity (PRKD1 (human)): 91.5%
- residual activity (RPS6KA1 KD1 KD2 (human)): 48.4%
- residual activity (RPS6KB1 (human)): 91%
- residual activity (SIK2 (human)): 95%
- residual activity (TAOK1 (human)): 71.6%
- residual activity (TGFBR1 (human)): 102%
- residual activity (TGFBR2 (human)): 94.9%
- residual activity (TNK2 (human)): 32.4%
- residual activity (TXK (human)): 86.6%
- residual activity [1]: 26.9%
- residual activity (TYRO3 (human)): 94.9%
- residual activity (ULK3 (human)): 92.2%
- residual activity (YES1 (human)): 78.3%

Compound: CNc1cc2c(Nc3cccc(Br)c3)ncnc2cn1
- residual activity (ADRBK2 (human)): 101%
- residual activity (BTK (human)): 94.7%
- residual activity (CDK4 CCND3 (human)): 120%
- residual activity (CHEK1 (human)): 108%
- residual activity (FGFR4 (human)): 93.7%
- residual activity (GRK4 (human)): 98.2%
- residual activity (GRK7 (human)): 83.8%
- residual activity (HCK (human)): 84.5%
- residual activity (INSR (human)): 100%
- residual activity (IRAK4 (human)): 82.6%
- residual activity (ITK (human)): 92.5%
- residual activity (MAP2K1 (human)): 74.6%
- residual activity (MAP3K5 (human)): 94.6%
- residual activity (MAP3K8 (human)): 90.2%
- residual activity (MAPK10 (human)): 96.1%
- residual activity (MAPKAPK3 (human)): 99.2%
- residual activity (MARK4 (human)): 84.5%
- residual activity (MYO3B (human)): 91.1%
- residual activity (NEK11 (human)): 106%
- residual activity (NEK2 (human)): 88.3%
- residual activity (NEK3 (human)): 101%
- residual activity (NEK6 (human)): 89.8%
- residual activity (OXSR1 (human)): 88.3%
- residual activity (PASK (human)): 86.9%
- residual activity (PBK (human)): 102%
- residual activity (PIM2 (human)): 102%
- residual activity (PIM3 (human)): 55.2%
- residual activity (PLK1 (human)): 93.5%
- residual activity (PRKCA (human)): 101%
- residual activity (PRKD1 (human)): 92.3%
- residual activity (RPS6KA1 KD1 KD2 (human)): 90.9%
- residual activity (RPS6KB1 (human)): 97.4%
- residual activity (SIK2 (human)): 98.3%
- residual activity (TAOK1 (human)): 92.4%
- residual activity (TGFBR1 (human)): 97.7%
- residual activity (TGFBR2 (human)): 105%
- residual activity (TNK2 (human)): 30.3%
- residual activity (TXK (human)): 79.9%
- residual activity [1]: 80.8%
- residual activity (TYRO3 (human)): 98.8%
- residual activity (ULK3 (human)): 95.8%
- residual activity (YES1 (human)): 74.7%
